Target: T1, IRAK4 (Homo sapiens, UniProt Q9NWZ3)
T1 construct: endogenous in cells; host or cells: THP-1 cells
T1 sequence (Q9NWZ3 1-460): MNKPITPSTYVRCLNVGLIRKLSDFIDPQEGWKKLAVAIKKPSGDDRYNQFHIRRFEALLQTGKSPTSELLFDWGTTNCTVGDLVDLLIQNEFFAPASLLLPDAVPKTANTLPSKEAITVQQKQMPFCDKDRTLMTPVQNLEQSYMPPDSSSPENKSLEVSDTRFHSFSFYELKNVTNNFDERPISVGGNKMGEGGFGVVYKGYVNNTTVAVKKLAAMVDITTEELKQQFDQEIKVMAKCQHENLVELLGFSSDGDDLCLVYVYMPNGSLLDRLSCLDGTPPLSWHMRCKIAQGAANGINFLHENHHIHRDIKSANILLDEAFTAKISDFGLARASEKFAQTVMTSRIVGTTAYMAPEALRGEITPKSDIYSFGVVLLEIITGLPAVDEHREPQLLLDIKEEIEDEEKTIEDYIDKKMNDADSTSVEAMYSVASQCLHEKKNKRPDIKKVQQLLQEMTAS
Experiment: ALE THP1 HTRF (Advanced Lipoxidation End Product THP1 Homogeneous Time Resolved Fluorescence)
Format: cell-based
Settings: THP1 cells
Method in brief: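 HTRF read-out of IRAK4 protein: anti-IRAK4 d2 and cryptate antibody pair added to BCA-normalized lysates, overnight dark room-temperature incubation. Lysis ran 45 min with shaking at room temperature; buffer, cryptate-only and negative controls included.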

Row | Structure (SMILES) | ALE THP1 HTRF YMIN | EC50
1 | CC(C)(C[C@H]1CC[C@H](NC(=O)c2cnc(-n3ncc4cc(C#N)cnc43)cc2NC2CCCC2)CC1)N1CCN(c2ccc(C3CCC(=O)NC3=O)cc2)CC1 (some centres unmarked) [P-81, 6-(5-cyano-1H-pyrazolo[3,4-b]pyridin-1-yl)-4-(cyclopentylamino)-N-((1r,4r)-4-(2-(4-(4-(2,6-dioxopiperidin-3-yl)phenyl)piperazin-1-yl)-2-methylpropyl)cyclohexyl)nicotinamide] | 10.7% | 73 nM
2 | CC(C)(C)Nc1cc(-n2ncc3cc(C#N)cnc32)ncc1C(=O)NC1CCC(CCN2CCN(c3ccc(C4CCC(=O)NC4=O)cc3)CC2)CC1 (centres unmarked) [P-83] | 8.1% | 47 nM
3 | N#Cc1cnc2c(cnn2-c2cc(NC3CCCC3)c(-n3cc([C@H]4CC[C@H](CCN5CCN(c6ccc(C7CCC(=O)NC7=O)cc6)CC5)CC4)nn3)cn2)c1 (some centres unmarked) [P-87, 1-[4-(cyclopentylamino)-5-[4-[4-[2-[4-[4-(2,6-dioxo-3-piperidyl)phenyl]piperazin-1-yl]ethyl]cyclohexyl]triazol-1-yl]-2-pyridyl]pyrazolo[3,4-b]pyridine-5-carbonitrile] | 10.5% | 26 nM
4 | N#Cc1cnc2c(cnn2-c2cc(NC3CC3)c(C(=O)N[C@H]3CC[C@H](OCC4CCN(c5ccc(C6CCC(=O)NC6=O)cc5)CC4)CC3)cn2)c1 (some centres unmarked) [P-88] | 64.5% | 49 nM
5 | N#CCNc1cc(-n2ncc3cc(C#N)cnc32)ncc1C(=O)NC1CCC(CCN2CCN(c3ccc(C4CCC(=O)NC4=O)cc3)CC2)CC1 (centres unmarked) [P-89] | 10.3% | 23 nM
6 | C[C@H](C#N)Nc1cc(-n2ncc3cc(C#N)cnc32)ncc1C(=O)N[C@H]1CC[C@H](CCN2CCN(c3ccc(C4CCC(=O)NC4=O)cc3)CC2)CC1 (stereo partly drawn) [P-91, 6-(5-Cyano-1H-pyrazolo[3,4-b]pyridin-1-yl)-4-(((R)-1-cyanoethyl)amino)-N-((1r,4r)-4-(2-(4-(4-(2,6-dioxopiperidin-3-yl)phenyl)piperazin-1-yl)ethyl)cyclohexyl)nicotinamide] | 7.0% | 5 nM
7 | N#Cc1cnc2c(-c3cc(NC4CC4)c(C(=O)NC4CCC(CCN5CCN(c6ccc(C7CCC(=O)NC7=O)cc6)CC5)CC4)cn3)cnn2c1 (centres unmarked) [P-93] | 13.0% | 23 nM
8 | N#Cc1cnc2c(cnn2-c2cc(NCCF)c(C(=O)NC3CCC(CCN4CCN(c5ccc(C6CCC(=O)NC6=O)cc5)CC4)CC3)cn2)c1 (centres unmarked) [P-99] | 10.7% | 22 nM
9 | N#Cc1cc2ccn(-c3cc(NC4CC4)c(C(=O)NC4CCC(CCN5CCN(c6ccc(C7CCC(=O)NC7=O)cc6)CC5)CC4)cn3)c2nc1F (centres unmarked) [P-100] | 28.3% | 1100 nM
10 | N#Cc1cnc2c(c1)c(F)cn2-c1cc(NC2CC2)c(C(=O)NC2CCC(CCN3CCN(c4ccc(C5CCC(=O)NC5=O)cc4)CC3)CC2)cn1 (centres unmarked) [P-101] | 24.6% | 92 nM
11 | N#Cc1cnc2c(cnn2-c2cc(NC3CC3)c(C(=O)NC3CCC(NCC4CCN(c5ccc(C6CCC(=O)NC6=O)cc5)CC4)CC3)cn2)c1 (centres unmarked) [P-102] | 14.2% | 32 nM
12 | CN(CC1CCN(c2ccc(C3CCC(=O)NC3=O)cc2)CC1)[C@H]1CC[C@H](NC(=O)c2cnc(-n3ncc4cc(C#N)cnc43)cc2NC2CC2)CC1 (some centres unmarked) [P-103, 6-(5-cyanopyrazolo[3,4-b]pyridin-1-yl)-4-(cyclopropylamino)-N-[4-[[1-[4-(2,6-dioxo-3-piperidyl)phenyl]-4-piperidyl]methyl-methyl-amino]cyclohexyl]pyridine-3-carboxamide] | 16.2% | 29 nM
13 | N#Cc1cnc2c(cnn2-c2cc(NC3CC3)c(C(=O)N[C@H]3CC[C@H](C(F)(F)CN4CCN(c5ccc(C6CCC(=O)NC6=O)cc5)CC4)CC3)cn2)c1 (some centres unmarked) [P-104, 6-(5-cyanopyrazolo[3,4-b]pyridin-1-yl)-4-(cyclopropylamino)-N-[4-[2-[4-[4-(2,6-dioxo-3-piperidyl)phenyl]piperazin-1-yl]-1,1-difluoro-ethyl]cyclohexyl]pyridine-3-carboxamide] | 16.0% | 47 nM
14 | N#Cc1cnc2c(cnn2-c2cc(NC[C@H]3CCCO3)c(C(=O)N[C@H]3CC[C@H](CCN4CCN(c5ccc(C6CCC(=O)NC6=O)cc5)CC4)CC3)cn2)c1 (some centres unmarked) [P-106] | 17.5% | 246 nM
15 | CCCNc1cc(-n2ncc3cc(C#N)cnc32)ncc1C(=O)N[C@H]1CC[C@H](CCN2CCN(c3ccc(C4CCC(=O)NC4=O)cc3)CC2)CC1 (some centres unmarked) [P-107] | 9.1% | 14 nM
16 | CC(C)(O)CNc1cc(-n2ncc3cc(C#N)cnc32)ncc1C(=O)N[C@H]1CC[C@H](CCN2CCN(c3ccc(C4CCC(=O)NC4=O)cc3)CC2)CC1 (some centres unmarked) [P-108] | 11.0% | 32 nM
17 | N#Cc1cnn2c(-c3cc(NC4CC4)c(C(=O)N[C@H]4CC[C@H](CCN5CCN(c6ccc(C7CCC(=O)NC7=O)cc6)CC5)CC4)cn3)ccc2c1 (some centres unmarked) [P-109] | 10.7% | 8 nM

Second part, the molecule after the results:

Row | ALE THP1 HTRF YMIN | EC50 | Structure (SMILES)
18 | 8.6% | 230 nM | N#Cc1cnc2c(cnn2-c2cc(NC3CCC3)c(C(=O)NC3CCC(CCN4CCN(c5ccc(C6CCC(=O)NC6=O)cc5)CC4)CC3)cn2)c1 (centres unmarked) [P-82]
19 | 9.7% | 35 nM | N#Cc1cnc2c(cnn2-c2cc(NC3CC3)c(C(=O)NC3CCC(CCN4CCN(c5ccc(C6CCC(=O)NC6=O)c(Cl)c5)CC4)CC3)cn2)c1 (centres unmarked) [P-84]
20 | 11.7% | 117 nM | N#Cc1cnc2c(cnn2-c2cc(NC3CC3)c(C(=O)NC3CCC(CCN4CCN(c5ccc(C6CCC(=O)NC6=O)nc5)CC4)CC3)cn2)c1 (centres unmarked) [P-85]
21 | 11.8% | 90 nM | CNc1cc(-n2ncc3cc(C#N)cnc32)ncc1C(=O)NC1CCC(CCN2CCN(c3ccc(C4CCC(=O)NC4=O)cc3)CC2)CC1 (centres unmarked) [P-86]
22 | 11.6% | 28 nM | N#Cc1cnc2c(cnn2-c2cc(NC3CC3)c(C(=O)N[C@H]3CC[C@H](CCN4CCC5(CC4)CN(c4cccc(C6CCC(=O)NC6=O)c4)C5)CC3)cn2)c1 (some centres unmarked) [P-90]
23 | 11.3% | 38 nM | N#Cc1cnc2c(cnn2-c2cc(NC34CC(C3)C4)c(C(=O)NC3CCC(CCN4CCN(c5ccc(C6CCC(=O)NC6=O)cc5)CC4)CC3)cn2)c1 (centres unmarked) [P-92]
24 | 9.9% | 15 nM | N#Cc1cnc2c(cnn2-c2cc(NC3CC3)c(C(=O)NC3CCC(CCN4CCN(c5ccc([C@H]6CCC(=O)NC6=O)cc5)CC4)CC3)cn2)c1 (some centres unmarked) [P-95]
25 | 8.5% | 4 nM | N#Cc1cnc2c(cnn2-c2cc(NC3CC3)c(C(=O)NC3CCC(CCN4CCN(c5ccc([C@@H]6CCC(=O)NC6=O)cc5)CC4)CC3)cn2)c1 (some centres unmarked) [P-96]
26 | 15.1% | 88 nM | N#Cc1cnc2c(cnn2-c2cc(NC3CC(F)(F)C3)c(C(=O)NC3CCC(CCN4CCN(c5ccc(C6CCC(=O)NC6=O)cc5)CC4)CC3)cn2)c1 (centres unmarked) [P-97]
27 | 10.5% | 17 nM | N#Cc1cnc2c(cnn2-c2cc(NC3CC3)c(C(=O)NC3CCC(CCN4CCN(c5ccc(C6CCC(=O)NC6=O)cn5)CC4)CC3)cn2)c1 (centres unmarked) [P-98]
28 | 11.5% | 76 nM | N#Cc1cnc2c(cnn2-c2cc(NCC3CC3)c(C(=O)N[C@H]3CC[C@H](CCN4CCN(c5ccc(C6CCC(=O)NC6=O)cc5)CC4)CC3)cn2)c1 (some centres unmarked) [P-105]
